This is an account of results in patent US12239629B2 (priority 2020, dated 2025).

A short description of data set [1]: Peak Inhibitory Concentration (Threshold) after oral administration. How it is done:
It is noted that the Peak Inhibitory Concentration (Threshold) of Artemether and Remdesivir were at 120 minutes after oral administration. The Peak Inhibitory Concentration (Threshold) of Lumefantrine was at 60 minutes after oral administration.

The conditions of data set [2]: cited from earlier work.
Data set [3] concerns SARS-CoV2. As to the kind of experiment: Drug pretreatment of Vero E6 cells prior to SARS-CoV2 infection, indirect immunofluorescence. The data set is classed as cell-based. How it is done: (§1) In carrying out the in vitro experiments, vero E6 cells (an African green monkey kidney cell line) were infected with SARS-CoV2 at a multiplicity of infection of 0.5 for 1 hour. The cells were washed with PBS and then incubated in OPTI-MEM (Invitrogen) medium with or without various concentrations of the following drug candidates: Artemether (from BiopharmaRx) Hydroxychloroquine (from Sigma Aldrich), Atazanavir (from Sigma Aldrich), and Efavirenz (from Sigma Aldrich), Fosamprenavir Calcium (from Sigma Aldrich), Saquinavir (from Sigma Aldrich) and Remdesivir (from AOBIOUS, INC., USA)
(§2) Immunofluorescence staining was performed with SARS-CoV2-specific hyperimmune mouse ascitic fluid (HMAF) followed by anti-mouse fluorescein-coupled antibody.
Experiments were carried out to determine the impact of artemether treatment on SARS-CoV2 infection. Permissive Vero E6 cells were pre-treated with various concentrations of artemether (0.1-50 μM) for 18-24 hours prior to virus infection. Cells were then infected with SARS-CoV2, and virus antigens were visualized by indirect immunofluorescence. For quantitative purposes, we counted the number of cells stained positive from three random locations on a slide. The average number of positively stained control cells was scored as 100% and was compared with the number of positive cells observed under various artemether concentrations. Pretreatment with 0.1, 1, 10, 20, 30, 40 and 50 μM artemether reduced infectivity by 4%, 12%, 32%, 45%, 63%, 92% and 100% respectively. Reproducible results were obtained from three independent experiments.

The test system of data set [4] is SARS-CoV2. The data set is described as follows: Drug added to Vero E6 cells immediately after SARS-CoV2 adsorption, indirect immunofluorescence after 24 hours. In kind it is cell-based. As to conditions: for inhibition: added after the initiation of infection. How it is done:
as §1, §2
The antiviral properties of artemether on SARS-CoV2 after the initiation of infection were studied. Vero E6 cells were infected with the virus and fresh medium supplemented with various concentrations of artemether was added immediately after virus adsorption. Infected cells were incubated for an additional 24 hours, after which the presence of virus antigens was analyzed by indirect immunofluorescence analysis. When artemether was added after the initiation of infection, there was a dramatic dose dependent decrease in the number of virus antigen-positive cells. […] A half-maximal inhibitory effect was estimated to occur at 16.5±1.0 μM artemether. […] (FIG. 2).

Data set [5] in a line: Dissolution test of Artemether/Lumefantrine-Remdesivir soft gel capsule. The data set is classed as physicochemical. As to conditions: 0.1 N. HCl with 3% Benzalkonium Chloride. An excerpt:
The soft gel capsule of Artemether and Lumefantrine is comprised: Artemether 4 to 5% w/w, Lumefantrine 20-24% w/w, Remdesivir 18-20%, non-aqueous vehicle 15-20% w/w, preservative less than 1% w/w, viscosity imparting agent 15-20% w/w, suspending agent 1 to 5% w/w and emulsifying agent 1 to 3% w/w and a process to manufacture the said preparation comprising of the following steps as given in the above Patent. • (a) Preservatives and Solid Suspending Agents were milled and sifted. • (b) Non-aqueous vehicle, viscosity imparting agent and liquid suspending agents were filtered to remove the foreign particles • (c) Additional steps for mixing preservatives and suspending agents: • (i) Preservatives were dissolved in non-aqueous vehicle; • (ii) Emulsifying agents were warmed and/or melted and added into mixture in (i) above; • (iii) Viscosity imparting agent is added to mixture of (ii) above and the resultant mixture is stirred. • (iv) Suspending agent is added and mixed with the mixture in (iii) above; and • (v) The mixture of (a) above and (c) (iv) above was homogenized. • (d) The mixture in (v) above was the encapsulated in soft gelatin.
Drug dissolution testing is routinely used to provide critical in vitro drug release information for both quality control purposes to predict in vivo drug release profiles.
The media for dissolution test was 0.1 N. HCl with 3% Benzalkonium Chloride.

In data set [6] the test system is COVID-19. As to conditions: preliminary results, cited from earlier work.
The test system of data set [7] is severe COVID-19. As to conditions: cited from earlier work.
[8] abbreviates: pretreatment 18-24 hours prior to virus infection, 0.1 μM.
[9] abbreviates: pretreatment 18-24 hours prior to virus infection, 1 μM.
Where [10] appears, read: pretreatment 18-24 hours prior to virus infection, 10 μM.
The mark [11] stands for this setting: pretreatment 18-24 hours prior to virus infection, 20 μM.
Setting [12] is: pretreatment prior to virus infection, 5 μM.
Setting [13] is: pretreatment prior to virus infection, 15 μM.
Setting [14] is: pretreatment prior to virus infection, 25 μM.
The mark [15] stands for this setting: Severe acute respiratory syndrome coronavirus 2, Vero C1008, drug added after the initiation of infection, Vero E6 cells, read-out: concentration that reduced the infection by 50%.
[16] abbreviates: Severe acute respiratory syndrome coronavirus 2, Vero C1008, drug added immediately after virus adsorption, Vero E6 cells, estimated, read-out: half-maximal inhibitory effect.
Where [17] appears, read: Severe acute respiratory syndrome coronavirus 2, Vero C1008, read-out: half-maximal inhibitory effect, drug added immediately after virus adsorption, Vero E6 cells, estimated.
[18] abbreviates: pretreatment 18-24 hours prior to virus infection, 30 μM.
The mark [19] stands for this setting: pretreatment 18-24 hours prior to virus infection, 40 μM.
Setting [20] is: pretreatment 18-24 hours prior to virus infection, 50 μM.

Values after ≈ are worked out from the molar mass of the structure shown. Structures can show the parent of a compound that is named as a salt. Where two headings read alike, the source gives them in different places.

Take `CCCCN(CCCC)CC(O)c1cc(Cl)cc2c1-c1ccc(Cl)cc1/C2=C/c1ccc(Cl)cc1` (stereo not shown) [Lumefantrine]: the “time of Peak Inhibitory Concentration (Threshold)” value in data set [1] worked out at 60 min. For the same compound, in data set [2], the “solubility in water (words)” value is “insoluble”.
Turning to `CCC(CC)COC(=O)[C@H](C)N[P@](=O)(OC[C@H]1O[C@@](C#N)(c2ccc3c(N)ncnn23)[C@H](O)[C@@H]1O)Oc1ccccc1` [Remdesivir, 2-ethylbutyl (2S)-2-[[[(2R,3S,4R,5R)-5-(4-aminopyrrolo[2,1-f][1,2,4]triazin-7-yl)-5-cyano-3,4-dihydroxyoxolan-2-yl]methoxy-phenoxyphosphoryl]amino]propanoate], the reduced infectivity in data set [3] (setting [8]) turned out to be 7%; in data set [3] (setting [9]), 21%; in data set [3] (setting [10]) it was 63%; in data set [3] (setting [11]), 96%; in data set [3] (setting [12]) it was 42%; in data set [3] (setting [13]), 84%. In addition, the reduced infectivity in data set [3] (setting [14]) was found to be 100%. Besides, the inhibition in data set [4] (5-50 μM concentrations) is 68%-96%. The IC50 is approximately 2.4 µM in data set [4] (setting [15]) and 2.4 ± 1 µM in data set [4] (setting [16]). The “% Cumulative Drug Release” value in data set [5] (60 minute time frame) was found to be 91.7%. Besides, the “% of Drug Release in a Dissolution Test” value in data set [5] (sample time 30 minute) turned out to be 52.6%; in data set [5] (sample time 60 minute) it was 73.4%; in data set [5] (sample time 90 minute), 85.8%; in data set [5] (sample time 120 minute), 92.6%. In addition, the “faster time to recovery than placebo” value in data set [6] (1063 patients, p<0.001) is 31%. Further, the “median time to recovery” value in data set [6] (1063 patients) is on record as 11 days. Besides, the mortality rate in data set [6] (p=0.059 vs placebo) is 8.0%. For the same compound, in data set [1], the “time of Peak Inhibitory Concentration (Threshold)” value stood at 120 min. For the same compound, in data set [2], the solubility in water was 0.33 mg/mL (≈ 548 µM). Further, in data set [2], the “solubility in water (words)” value is “sparingly soluble”. Further, the “stopped early because of adverse events” value is on record as 18 patients in data set [7] (adult patients admitted to hospital for severe COVID-19, 237 enrolled) and 12% in data set [7] (share of patients, adult patients with severe COVID-19). Also, in data set [7] (adult patients admitted to hospital for severe COVID-19), the clinical benefits result is “not associated with statistically significant clinical benefits”.
As to `COC(=O)N[C@H](C(=O)N[C@@H](Cc1ccccc1)[C@@H](O)CN(Cc1ccc(-c2ccccn2)cc1)NC(=O)[C@@H](NC(=O)OC)C(C)(C)C)C(C)(C)C` [atazanavir sulfate], the reduced infectivity in data set [3] (setting [8]) is recorded as 5%; in data set [3] (setting [9]), 15%; in data set [3] (setting [10]), 46%; in data set [3] (setting [11]), 92%; in data set [3] (setting [12]) it was 28%; in data set [3] (setting [13]) it was 78%. The reduced infectivity in data set [3] (setting [14]) worked out at 100%. Besides, the inhibition in data set [4] (40-100 μM concentrations) is reported as 86%-96%. In addition, the IC50 in data set [4] (setting [15]) was approximately 11 µM; in data set [4] (setting [16]), 11.5 ± 1 µM.
Take `C[C@H]1O[C@@H](O[C@H]2[C@@H](O)C[C@H](O[C@H]3[C@@H](O)C[C@H](O[C@H]4CC[C@@]5(C)[C@H](CC[C@@H]6[C@@H]5C[C@@H](O)[C@]5(C)[C@@H](C7=CC(=O)OC7)CC[C@]65O)C4)O[C@@H]3C)O[C@@H]2C)C[C@H](O)[C@@H]1O` [digoxin, 3-[(3S,5R,8R,9S, 10S, 12R, 13S, 14S, 17R)-3-[(2R,4S,5S,6R)-5-[(2S,4S,5S,6R)-5-[(2S,4S,5S,6R)-4,5-dihydroxy-6-methyloxan-2-yl]oxy-4-hydroxy-6-methyloxan-2-yl]oxy-4-hydroxy-6-methyloxan-2-yl]oxy-12,14-dihydroxy-10, 13-dimethyl-1,2,3,4,5,6,7,8,9, 11, 12, 15, 16, 17-tetradecahydrocyclopenta[a]phenanthren-17-yl]-2H-furan-5-one]: in data set [4] (0.20-0.50 μM concentrations), the inhibition is on record as 73%-97%. Also, the IC50 was approximately 0.17 µM in data set [4] (setting [15]) and 0.17 ± 0.05 µM in data set [4] (setting [17]).
Consider `O=C1Nc2ccc(Cl)cc2[C@@](C#CC2CC2)(C(F)(F)F)O1` [efavirenz, Efavirenz], for which the reduced infectivity was 3% in data set [3] (setting [8]); 9% in data set [3] (setting [9]); 25% in data set [3] (setting [10]); 48% in data set [3] (setting [11]); 73% in data set [3] (setting [18]); 89% in data set [3] (setting [19]). Moreover, the reduced infectivity in data set [3] (setting [20]) came to 100%. Further, the inhibition in data set [4] (80-200 μM concentrations) is on record as 73%-96%. Moreover, the IC50 in data set [4] (Severe acute respiratory syndrome coronavirus 2, Vero C1008, read-out: concentration that reduced the infection by 50%, drug added after the initiation of infection, Vero E6 cells) is approximately 55 µM; in data set [4] (setting [17]), 51 ± 1 µM.
On to `CC(C)CN(C[C@H](OP(=O)(O)O)[C@H](Cc1ccccc1)NC(=O)O[C@H]1CCOC1)S(=O)(=O)c1ccc(N)cc1` [fosamprenavir calcium, Fosamprenavir Calcium], for which the reduced infectivity amounted to 3% in data set [3] (setting [8]); 10% in data set [3] (setting [9]); 28% in data set [3] (setting [10]); 55% in data set [3] (setting [11]); 73% in data set [3] (setting [18]); 91% in data set [3] (setting [19]). In data set [3] (setting [20]), the reduced infectivity was found to be 100%. Besides, the inhibition in data set [4] (80-200 μM concentrations) is on record as 75%-96%. In addition, the IC50 in data set [4] (setting [15]) was approximately 58 µM; in data set [4] (setting [16]), 58 ± 1 µM; in data set [4] (read-out: concentration that reduced the infection by 50%, drug added after the initiation of infection, Vero E6 cells), approximately 95 µM.
For `CCN(CCO)CCCC(C)Nc1ccnc2cc(Cl)ccc12` (stereo not shown) [hydroxychloroquine sulfate], the reduced infectivity in data set [3] (setting [8]) stood at 6%; in data set [3] (setting [9]), 18%; in data set [3] (setting [10]) it was 47%; in data set [3] (setting [11]), 63%; in data set [3] (setting [18]) it was 81%; in data set [3] (setting [19]) it was 92%. In data set [3] (setting [20]), the reduced infectivity was 100%. In addition, the inhibition in data set [4] (40-100 μM concentrations) is given as 75-96%. The IC50 in data set [4] (setting [16]) was 7.5 ± 1 µM. Moreover, the reduced the infection in data set [4] (approximately 10 μM added immediately after virus adsorption, 24 hours) is 63%.
`CC(C)(C)NC(=O)[C@@H]1C[C@@H]2CCCC[C@@H]2CN1C[C@@H](O)[C@H](Cc1ccccc1)NC(=O)[C@H](CC(N)=O)NC(=O)c1ccc2ccccc2n1` [saquinavir, Saquinavir]: the reduced infectivity in data set [3] (setting [9]) turned out to be 5%; in data set [3] (setting [10]), 16%; in data set [3] (setting [11]) it was 35%; in data set [3] (setting [19]) it was 47%; in data set [3] (pretreatment 18-24 hours prior to virus infection, 60 μM), 78%; in data set [3] (pretreatment 18-24 hours prior to virus infection, 80 μM) it was 85%. In data set [3] (pretreatment 18-24 hours prior to virus infection, 100 μM), the reduced infectivity came to 100%. Besides, in data set [4] (120-240 μM concentrations), the inhibition is 63%-96%. The IC50 in data set [4] (setting [17]) was 96 ± 1 µM.
